Laboratory results as given in publication PMC8597734 (Antimicrobial Agents and Chemotherapy, 2021).
In brackets after ≈: the same amount, converted by molar mass. Read-outs that look alike come from different tables or passages of the source.

Columns and labels:
M. avium 11 = assay: microbe, parasite or virus in culture; type: cell-based; conditions: Mycobacterium avium, 11, 96 h
[1] = test system: M. intracellulare ATCC 13950; assay: microbe, parasite or virus in culture; type: cell-based; conditions: Mycobacterium intracellulare, ATCC13950, 96 h
M. abscessus Bamboo [2] = assay: microbe, parasite or virus in culture; type: cell-based, Mycobacterium abscessus; conditions: Mycobacteroides abscessus
[3] = test system: M. abscessus subsp. abscessus ATCC 19977; assay: microbe, parasite or virus in culture; type: cell-based, Mycobacterium abscessus; conditions: Mycobacteroides abscessus
[4] = test system: M. abscessus subsp. massiliense CCUG 48898T; assay: microbe, parasite or virus in culture; type: cell-based, Mycobacterium abscessus; conditions: Mycobacteroides abscessus, 72 h
[5] = test system: M. abscessus subsp. bolletii CCUG 50184T; assay: microbe, parasite or virus in culture; type: cell-based, Mycobacterium abscessus; conditions: Mycobacteroides abscessus, 72 h
[6] = test system: M. abscessus subsp. abscessus M9; assay: microbe, parasite or virus in culture; type: cell-based, Mycobacterium abscessus; conditions: Mycobacteroides abscessus, 72 h
[7] = test system: M. abscessus subsp. abscessus M199; assay: microbe, parasite or virus in culture; type: cell-based, Mycobacterium abscessus; conditions: Mycobacteroides abscessus, 72 h
[8] = test system: M. abscessus subsp. abscessus M337; assay: microbe, parasite or virus in culture; type: cell-based, Mycobacterium abscessus; conditions: Mycobacteroides abscessus, 72 h
[9] = test system: M. abscessus subsp. abscessus M404; assay: microbe, parasite or virus in culture; type: cell-based, Mycobacterium abscessus; conditions: Mycobacteroides abscessus, 72 h
[10] = test system: M. abscessus subsp. abscessus M422; assay: microbe, parasite or virus in culture; type: cell-based, Mycobacterium abscessus; conditions: Mycobacteroides abscessus, 72 h
[11] = test system: M. abscessus subsp. bolletii M232; assay: microbe, parasite or virus in culture; type: cell-based, Mycobacterium abscessus; conditions: Mycobacteroides abscessus, 72 h
[12] = test system: M. abscessus subsp. bolletii M506; assay: microbe, parasite or virus in culture; type: cell-based, Mycobacterium abscessus; conditions: Mycobacteroides abscessus, 72 h
[13] = test system: M. abscessus subsp. massiliense M111; assay: microbe, parasite or virus in culture; type: cell-based, Mycobacterium abscessus; conditions: Mycobacteroides abscessus, 72 h
[14] = test system: M. abscessus subsp. abscessus K21; assay: microbe, parasite or virus in culture; type: cell-based, Mycobacterium abscessus; conditions: Mycobacteroides abscessus, 72 h
M. abscessus Bamboo [15] = assay: MIC and MBC determination in culture tubes (planktonic); type: cell-based, Mycobacterium abscessus; conditions: for MBC: 10-fold reduction in CFU/ml vs day 0; for MIC: 48 h, day 2
[16] = test system: M. abscessus Bamboo biofilms; assay: Biofilm growth inhibition assay (biofilm MIC and MBC); type: cell-based, Mycobacterium abscessus; conditions: Mycobacteroides abscessus, Biofilm, M. abscessus Bamboo; for MBC: 10-fold reduction of CFU/peg vs 24 h; for MIC: 90% reduction of CFU/peg relative to drug-free biofilm growth, 48 h
Method: The biofilm growth inhibition assay was performed as previously described ([52]). Innovotech MBEC 96-well Biofilm Assay Plates (Innovotech 19111, Edmonton, AB, Alberta, Canada) were used, and the supplier’s manual was followed with minor modifications. Midlog phase M. abscessus Bamboo precultures (OD600 = 0.4–0.6) were spun down at 3,200 × g for 10 min at 25°C and washed with 7H9 medium without Tween 80 (7H9nt). Bacteria were resuspended into 25 ml 7H9nt to an OD600 = 0.0125 (1.0 × 10^6 CFU/ml). 150 μl of bacteria suspension was dispensed into each well of MBEC multititer plates and the polystyrene protrusions (pegs) of the MBEC lid were inserted into the culture-containing wells for 24 h at 37°C on an orbital shaker at 110 rpm to allow attachment of the bacteria to the pegs and initiation of biofilm growth. The lids with the pegs (now with 1-day-old biofilms) were transferred to new MBEC multititer plates containing 150 μl of fresh 7H9nt medium per well without bacteria (0 h time point). After that, the lids with biofilm-laden pegs were transferred once a day to a new multititer plate containing fresh 7H9nt medium. To measure growth of the biofilm formed on the peg, the pegs were washed in 200 μl of 7H9nt medium before they were aseptically removed and placed in 1.7 ml microcentrifuge tubes (VWR 87003-294, Rador, PA, United States) containing 500 μl PBS/Tween 80. The microcentrifuge tubes were vigorously vortexed at 2,000 rpm for 90 s at 25°C to detach the bacteria from the pegs before samples were serially diluted and plated for the determination of CFU/peg. […] The average drug-free biofilm growth was calculated by subtracting the average 24 h CFU/peg value from the average 72 h CFU/peg value for the untreated control pegs. The biofilm MIC was defined as the lowest drug concentration that reduced the CFU/peg by 90% relative to the average drug-free biofilm growth.

[17] = test system: anaerobic, nonreplicating M. abscessus Bamboo; assay: MBC determination under anaerobic conditions; type: cell-based, Mycobacterium abscessus; conditions: Mycobacteroides abscessus, 48 h drug exposure
[18] = test system: nutrient-starved, nonreplicating M. abscessus Bamboo; assay: MBC determination under nutrient-starved conditions; type: cell-based, Mycobacterium abscessus; conditions: Mycobacteroides abscessus, 48 h drug exposure
Method: The determination of drug bactericidal activity against nutrient-starved M. abscessus cultures was performed as previously described ([52]). […] Washed culture was then diluted with PBS/Tyloxapol to OD600 = 0.2 (1.8 × 10^7 CFU/ml). […] Appropriate concentrations of drugs up to 100 μM were added to the tubes prior to incubation at 37°C on a tilted rack in an orbital shaker at 220 rpm.

[19] = test system: M. abscessus Bamboo RM1 (GyrA M129K); assay: microbe, parasite or virus in culture; type: cell-based, Mycobacterium abscessus; conditions: Mycobacteroides abscessus
[20] = test system: M. abscessus Bamboo RM2 (GyrA D91N); assay: microbe, parasite or virus in culture; type: cell-based, Mycobacterium abscessus; conditions: Mycobacteroides abscessus
[21] = test system: M. abscessus Bamboo RM3 (GyrA D91N); assay: microbe, parasite or virus in culture; type: cell-based, Mycobacterium abscessus; conditions: Mycobacteroides abscessus
[22] = test system: M. abscessus Bamboo RM4 (GyrA D91G); assay: microbe, parasite or virus in culture; type: cell-based, Mycobacterium abscessus; conditions: Mycobacteroides abscessus
[23] = test system: M. abscessus ATCC 19977 MXF_R1 (GyrA D96Y); assay: microbe, parasite or virus in culture; type: cell-based, Mycobacterium abscessus
[24] = test system: M. abscessus ATCC 19977 MXF_R2 (GyrA D96N); assay: microbe, parasite or virus in culture; type: cell-based, Mycobacterium abscessus
[25] = test system: M. abscessus ATCC 19977 MXF_R3 (GyrA D96G); assay: microbe, parasite or virus in culture; type: cell-based, Mycobacterium abscessus
[26] = test system: M. abscessus subsp. abscessus K21; assay: M. abscessus mouse infection model; type: in vivo, Mycobacterium abscessus; conditions: NOD SCID mice, intranasal infection
Method: In vivo efficacy determinations were carried out as described previously, using 8-week-old female NOD.CB17-Prkdc^scid/NCrCrl (NOD SCID) mice (Charles River Laboratories) and the M. abscessus subsp. abscessus K21 strain ([48]). Briefly, anesthetized animals were infected by intranasal delivery of ∼10^6 CFU of M. abscessus subsp. abscessus K21. Acute infection was achieved within 1 day. Drugs or the vehicle control was administered to NOD SCID mice once daily for 10 consecutive days by oral gavage, starting from 1 day postinfection. Clarithromycin was formulated in 0.4% methyl cellulose–sterile water and administered at a dose of 250 mg/kg. […] EC/11716 was formulated in 0.4% methyl cellulose–sterile water and administered at 400 mg/kg. All mice were euthanized 24 h after the last dose (11 days postinfection), and their lungs and spleen were aseptically removed prior to homogenization. The bacterial load in these organs was determined by plating serial dilutions of the organ homogenates onto Middlebrook 7H11 agar (BD Difco) supplemented with 0.2% (vol/vol) glycerol and 10% (vol/vol) OADC. The agar plates were incubated for 5 days at 37°C prior to counting of colonies. All studies were conducted in accordance with the GSK Policy on the Care, Welfare and Treatment of Laboratory Animals and were reviewed the Institutional Animal Care and Use Committee either at GSK or by the ethical review process at the institution where the work was performed. All experiments involving live animals were approved by the Institutional Animal Care and Use Committee of the Center for Discovery and Innovation, Hackensack Meridian Health.

[27] = test system: M. tuberculosis H37Rv ATCC 27294; assay: microbe, parasite or virus in culture; type: cell-based; conditions: Mycobacterium tuberculosis, 168 h
[28] = Mycobacteroides abscessus, ATCC19977

Row | Compound | MIC (M. avium 11) | MIC [1] | MIC (M. abscessus Bamboo [2]) | MIC (M. abscessus Bamboo [2]; 72 h) | MIC ([3]; ATCC19977) | MIC ([3]; ATCC19977, 72 h) | MIC [4] | MIC [5] | MIC [6] | MIC [7] | MIC [8] | MIC [9] | MIC [10] | MIC [11] | MIC [12] | MIC [13] | MIC [14] | MBC (M. abscessus Bamboo [15]; Mycobacteroides abscessus, 0 h) | MIC (M. abscessus Bamboo [15]; Mycobacteroides abscessus) | MBC [16] | further results
1 | CC[C@H]1OC(=O)[C@H](C)[C@@H](O[C@H]2C[C@@](C)(OC)[C@@H](O)[C@H](C)O2)[C@H](C)[C@@H](O[C@@H]2O[C@H](C)C[C@H](N(C)C)[C@H]2O)[C@](C)(OC)C[C@@H](C)C(=O)[C@H](C)[C@@H](O)[C@]1(C)O [CLR, clarithromycin] | 0.3 µM (≈ 0.224 µg/mL) | 0.15 µM (≈ 0.112 µg/mL) | 0.33 µM (≈ 0.247 µg/mL) | 0.23 µM (≈ 0.172 µg/mL) | 1.2 µM (≈ 0.898 µg/mL) | 0.9 µM (≈ 0.673 µg/mL) | 0.19 µM (≈ 0.142 µg/mL) | 2.5 µM (≈ 1.87 µg/mL) | 0.73 µM (≈ 0.546 µg/mL) | 2.7 µM (≈ 2.02 µg/mL) | 0.9 µM (≈ 0.673 µg/mL) | 0.2 µM (≈ 0.15 µg/mL) | 0.65 µM (≈ 0.486 µg/mL) | 0.95 µM (≈ 0.711 µg/mL) | 0.28 µM (≈ 0.209 µg/mL) | 0.24 µM (≈ 0.18 µg/mL) | 0.4 µM (≈ 0.299 µg/mL) | > 100 µM | 0.28 µM (≈ 0.209 µg/mL) | > 100 µM | MBC (M. abscessus Bamboo [15]): >100 µM; MIC [16]: 1.6 µM (≈ 1.2 µg/mL); MBC [17]: > 100 µM; MBC [18]: > 100 µM; MIC [19]: 0.24 µM (≈ 0.18 µg/mL); MIC [20]: 0.29 µM (≈ 0.217 µg/mL); MIC [21]: 0.27 µM (≈ 0.202 µg/mL); MIC [22]: 0.26 µM (≈ 0.194 µg/mL); MIC [23, 28]: 1.5 µM (≈ 1.12 µg/mL); MIC [24, 28]: 0.73 µM (≈ 0.546 µg/mL); MIC [25, 28]: 0.34 µM (≈ 0.254 µg/mL); reduction in lung CFU ([26]; 250 mg/kg oral once daily for 10 days, EC/11716 reduction stated on par with it): ~1 log
2 | COc1c(N2C[C@@H]3CCCN[C@@H]3C2)c(F)cc2c(=O)c(C(=O)O)cn(C3CC3)c12 [MXF, moxifloxacin] | 1.3 µM (≈ 0.522 µg/mL) | 0.4 µM (≈ 0.161 µg/mL) | 5.4 µM (≈ 2.17 µg/mL) | 4.6 µM (≈ 1.85 µg/mL) | 3.6 µM (≈ 1.45 µg/mL) | 3.6 µM (≈ 1.45 µg/mL) | 8 µM (≈ 3.21 µg/mL) | 6.3 µM (≈ 2.53 µg/mL) | 2.9 µM (≈ 1.16 µg/mL) | 4.8 µM (≈ 1.93 µg/mL) | 2.9 µM (≈ 1.16 µg/mL) | 5 µM (≈ 2.01 µg/mL) | 2.7 µM (≈ 1.08 µg/mL) | 3.2 µM (≈ 1.28 µg/mL) | 7.1 µM (≈ 2.85 µg/mL) | 6.7 µM (≈ 2.69 µg/mL) | 7.3 µM (≈ 2.93 µg/mL) | 3.1 µM (≈ 1.24 µg/mL) | 1.9 µM (≈ 0.763 µg/mL) | 25 µM (≈ 10 µg/mL) | MIC [27]: 0.6 µM (≈ 0.241 µg/mL); MIC [16]: 6 µM (≈ 2.41 µg/mL); MIC [19]: 20 µM (≈ 8.03 µg/mL); MIC [20]: 42 µM (≈ 16.9 µg/mL); MIC [21]: 47 µM (≈ 18.9 µg/mL); MIC [22]: 27 µM (≈ 10.8 µg/mL); MIC [23]: >100 µM; MIC [23, 28]: > 50 µM; MIC [24]: 68 µM (≈ 27.3 µg/mL); MIC [24, 28]: > 50 µM; MIC [25]: 54 µM (≈ 21.7 µg/mL); MIC [25, 28]: > 50 µM; reduction in lung CFU burden ([26]; 200 mg/kg oral once daily for 10 days, not statistically significant): 0.6 log
3 | CO[C@H]1/C=C/O[C@@]2(C)Oc3c(C)c(O)c4c(O)c(c(/C=N/N5CCN(C)CC5)c(O)c4c3C2=O)NC(=O)/C(C)=C\C=C\[C@H](C)[C@H](O)[C@@H](C)[C@@H](O)[C@@H](C)[C@H](OC(C)=O)[C@@H]1C [rifampin] | – | – | – | – | – | – | – | – | – | – | – | – | – | – | – | – | – | – | – | – | MIC [27]: 0.66 µM (≈ 0.543 µg/mL)
